Where “and” joins values, the source holds several entries; their conditions need not be identical. Equal entries are not always repeated.
System: NSCLC tumors expressing TElomerase Reverse Transcriptase (TERT)
Test: Vx-001-201 randomized double blind phase IIb study: clinical outcome (OS, TTF, 12 months survival)
Assay type: in vivo, human
From the text: The Vx-001-201 study is a randomized, double blind multicenter study done in 70 centers in France, Germany, Spain, Italy, Greece, Poland, Romania and Czech Republic. Key eligibility criteria were a) non small cell lung cancer (NSCLC), b) stage IV or recurrent stage I-III, c) disease control after platinum based first line chemotherapy according to RECIST 1.1 criteria, d) HLA-A*0201 positivity, e) tumors expressing TElomerase Reverse Transcriptase (TERT), f) ECOG 0 or 1 g) absence of brain metastasis.
• a) Principal endpoint: overall survival (OS) measured from randomization • b) Secondary endpoints: • Time to Treatment Failure (TTF) measured from randomization • OS at 12 months • c) Main exploratory objectives • Evaluation of vaccine induced specific immune response • Correlation between vaccine specific immune response and clinical response Procedures and Vaccination Protocol
Patients who fulfilled all inclusion criteria were randomized within 4 weeks after the end of first line chemotherapy.
The vaccination protocol consisted in six vaccinations at three week interval. The optimized Vx-001/TERT572Y was used in the first two vaccinations and the native Vx-001/TERT572 in the following four vaccinations. Patients who continued controlling their disease after the sixth vaccination received boost vaccination with the Vx-001/TERT572 every three months. Vaccination was stopped at disease progression (FIG. 1).
The primary and secondary endpoints were analysed in the Full Analysis Set (FAS) composed of all patients who fulfilled the five main criteria a) NSCLC, b) stage IV or recurrent stage I-III, c) disease control after first line chemotherapy, d) HLA-A*0201 positivity and e) TERT expressing tumors.
We used the Kaplan-Meier method to estimate OS and TTF in each arm and a Cox proportional hazards regression model to estimate Hazard Ratio (HR) relating OS and TTF to the treatment effect.

[1] = FAS, all patients, Vx-001 vs placebo
[2] = FAS, OR to chemotherapy (n = 87)
[3] = FAS, SD to chemotherapy (n = 103)
[4] = Vx-001 responders vs non-responders
[5] = patients with no natural immunity
[6] = patients without natural immunity, Vx-001 vs placebo
[7] = vaccinated patients, Vx-001 immune non-responders
[8] = vaccinated patients, Vx-001 immune responders
[9] = with natural immunity, assessed before 26 days after end of chemotherapy
[10] = with natural immunity, assessed before 26 days after end of chemotherapy, Vx-001 vs placebo
[11] = within Vx-001 treated (n = 80): natural immunity vs no natural immunity
[12] = without natural immunity, assessed less than 26 days after end of chemotherapy
[13] = without natural immunity, assessed less than 26 days after end of chemotherapy, Vx-001 vs placebo
[14] = without natural immunity, 1st line CARBO (n = 74)
[15] = without natural immunity, 1st line CARBO (n = 74), Vx-001 vs placebo
[16] = without natural immunity, 1st line CDDP (n = 46)
[17] = without natural immunity, 1st line CDDP (n = 46), Vx-001 vs placebo
[18] = without natural immunity, <65 years (n = 59)
[19] = without natural immunity, <65 years (n = 59), Vx-001 vs placebo
[20] = without natural immunity, >65 years (n = 63)
[21] = without natural immunity, >65 years (n = 63), Vx-001 vs placebo
[22] = without natural immunity, Current smoker
[23] = without natural immunity, Current smoker, Vx-001 vs placebo
[24] = without natural immunity, Female (n = 33)
[25] = without natural immunity, Female (n = 33), Vx-001 vs placebo
[26] = without natural immunity, Heavy smoker (>25 years, former or current smoker)
[27] = without natural immunity, Male (n = 89)
[28] = without natural immunity, Male (n = 89), Vx-001 vs placebo
[29] = without natural immunity, NS + Former smoker (<30 years)
[30] = without natural immunity, NS + Former smoker (≤20 years)
[31] = without natural immunity, NS + Former smoker (≤25 years)
[32] = without natural immunity, NS or light smoker (≤25 years, former or current smoker)
[33] = without natural immunity, NSQ (n = 76)
[34] = without natural immunity, Never smoker (NS)
[35] = without natural immunity, OR to chemotherapy (n = 55)
[36] = without natural immunity, OR to chemotherapy (n = 55), Vx-001 vs placebo
[37] = without natural immunity, SD to chemotherapy (n = 67)
[38] = without natural immunity, SD to chemotherapy (n = 67), Vx-001 vs placebo
[39] = without natural immunity, SQ (n = 46)
[40] = without natural immunity, SQ (n = 46), Vx-001 vs placebo

Vx-001: vaccine composed of two nine amino acid peptides, TERT572 and TERT572Y, administered separately with the adjuvant Montanide ISA51 VG (chain 1 RLFFYRKSV; chain 2 YLFFYRKSV; Montanide ISA51 VG adjuvant; peptide from a human protein; optimized peptide)
12 months survival (FAS, all patients): 58%
Median OS (FAS, all patients): 14.3 months
Median TTF (FAS, all patients): 3.6 months
HR (OS) [1]: 0.97
HR (TTF) [1]: 0.88
12 months OS (FAS, 1st line CARBO (n = 119)): 58.2%
Median survival (OS) (FAS, 1st line CARBO (n = 119)): 14.3 months
HR (OS) (FAS, 1st line CARBO (n = 119), Vx-001 vs placebo): 1.06
12 months OS (FAS, 1st line CDDP (n = 69)): 59%
Median survival (OS) (FAS, 1st line CDDP (n = 69)): 15 months
HR (OS) (FAS, 1st line CDDP (n = 69), Vx-001 vs placebo): 0.81
12 months OS (FAS, <65 years (n = 92)): 57.7%
Median survival (OS) (FAS, <65 years (n = 92)): 13.4 months
HR (OS) (FAS, <65 years (n = 92), Vx-001 vs placebo): 1.2
12 months OS (FAS, >65 years (n = 98)): 59%
Median survival (OS) (FAS, >65 years (n = 98)): 15 months
HR (OS) (FAS, >65 years (n = 98), Vx-001 vs placebo): 0.78
12 months OS (FAS, Female (n = 59)): 53.3%
Median survival (OS) (FAS, Female (n = 59)): 13.2 months
HR (OS) (FAS, Female (n = 59), Vx-001 vs placebo): 1.52
12 months OS (FAS, Male (n = 131)): 61%
Median survival (OS) (FAS, Male (n = 131)): 15 months
HR (OS) (FAS, Male (n = 131), Vx-001 vs placebo): 0.81
12 months OS (FAS, NSQ (n = 118)): 55%
Median survival (OS) (FAS, NSQ (n = 118)): 13.4 months
HR (OS) (FAS, NSQ (n = 118), Vx-001 vs placebo): 0.88
12 months OS [2]: 69%
Median survival (OS) [2]: 15.3 months
HR (OS) (FAS, OR to chemotherapy (n = 87), Vx-001 vs placebo): 0.89
12 months OS [3]: 52%
Median survival (OS) [3]: 14.3 months
HR (OS) (FAS, SD to chemotherapy (n = 103), Vx-001 vs placebo): 0.99
12 months OS (FAS, SQ (n = 72)): 64%
Median survival (OS) (FAS, SQ (n = 72)): 14.3 months
HR (OS) (FAS, SQ (n = 72), Vx-001 vs placebo): 1.13
HR (OS) [4]: 0.39
HR (TTF) [4]: 0.41
12 months OS (patients with natural immunity): 65%
Median TTF (patients with natural immunity): 2.9 months
OS and 12 months survival, placebo vs Vx-001 (patients with natural immunity (FIG. 6)): no difference
Median survival (OS) (patients with natural immunity against TERT572): 15.5 months
12 months OS [5]: 55%
Median TTF [5]: 4.1 months
Median survival (OS) (patients with no natural immunity against TERT572 (non-immunogenic tumors)): 13.2 months
HR (OS) [6]: 0.80
HR (TTF) [6]: 0.75
Median OS [7]: 13.4 months
Median TTF [7]: 3.6 months
Median OS [8]: 21.3 months
Median TTF [8]: 9.1 months
Median OS [9]: 15.3 months
Median TTF [9]: 2.2 months
HR (OS) [10]: 1.54
HR (TTF) [10]: 1.98
HR (OS) [11]: 0.91
HR (TTF) [11]: 0.83
Median OS (without natural immunity, assessed later than 26 days after chemotherapy): 13.2 months
HR (OS) (without natural immunity, assessed later than 26 days after chemotherapy, Vx-001 vs placebo): 0.96
Median OS [12]: 11.7 months
Median TTF [12]: 4.1 months
HR (OS) [13]: 0.58
HR (TTF) [13]: 0.62
12 months OS [14]: 53%
Median TTF [14]: 3.7 months
Median survival (OS) [14]: 13.1 months
HR (OS) [15]: 1.03
HR (TTF) [15]: 0.80
12 months OS [16]: 59%
Median TTF [16]: 4.1 months
Median survival (OS) [16]: 13.4 months
HR (OS) [17]: 0.51
HR (TTF) [17]: 0.67
12 months OS [18]: 53.6%
Median TTF [18]: 3.5 months
Median survival (OS) [18]: 12.7 months
HR (OS) [19]: 1.00
HR (TTF) [19]: 0.84
12 months OS [20]: 57.1%
Median TTF [20]: 4.4 months
Median survival (OS) [20]: 14.1 months
HR (OS) [21]: 0.63
HR (TTF) [21]: 0.65
12 months OS [22]: 20%
Median TTF [22]: 4.4 months
Median survival (OS) [22]: 6.4 months
HR (OS) [23]: 1.3
HR (TTF) [23]: 0.70
12 months OS [24]: 52.9%
Median TTF [24]: 4.6 months
Median survival (OS) [24]: 12.7 months
HR (OS) [25]: 1.24
HR (TTF) [25]: 0.91
Median TTF (without natural immunity, Former smoker (<30 years)): 4.2 months
HR (TTF) (without natural immunity, Former smoker (<30 years), Vx-001 vs placebo): 0.55
Median TTF (without natural immunity, Former smoker (≤20 years) (never smoked or smokers less than 20 years)): 5.6 months
HR (TTF) (without natural immunity, Former smoker (≤20 years) (never smoked or smokers less than 20 years), Vx-001 vs placebo): 0.39
Median TTF (without natural immunity, Former smoker (≤25 years) (never smoked or smokers less than 25 years)): 5.6 months
HR (TTF) (without natural immunity, Former smoker (≤25 years) (never smoked or smokers less than 25 years), Vx-001 vs placebo): 0.43
12 months OS [26]: 42.1%
Median survival (OS) [26]: 9.9 months
HR (OS) (without natural immunity, Heavy smoker (>25 years, former or current smoker), Vx-001 vs placebo): 1.15
12 months OS [27]: 56.4%
Median TTF [27]: 3.7 months
Median survival (OS) [27]: 14.1 months
HR (OS) [28]: 0.70
HR (TTF) [28]: 0.7
12 months OS [29]: 78%
Median survival (OS) [29]: 20.2 months
HR (OS) (without natural immunity, NS + Former smoker (<30 years), Vx-001 vs placebo): 0.37
12 months OS [30]: 80%
Median survival (OS) [30]: 20.2 months
HR (OS) (without natural immunity, NS + Former smoker (≤20 years), Vx-001 vs placebo): 0.23
12 months OS [31]: 82.3%
Median survival (OS) [31]: 20.7 months
HR (OS) (without natural immunity, NS + Former smoker (≤25 years), Vx-001 vs placebo): 0.29
12 months OS [32]: 83.0%
Median survival (OS) [32]: 20.7 months
HR (OS) (without natural immunity, NS or light smoker (≤25 years, former or current smoker), Vx-001 vs placebo): 0.27
12 months OS [33]: 56.7%
Median survival (OS) [33]: 13.4 months
HR (OS) (without natural immunity, NSQ (n = 76), Vx-001 vs placebo): 0.58
Median TTF (without natural immunity, NSQ (n = 78)): 4.6 months
HR (TTF) (without natural immunity, NSQ (n = 78), Vx-001 vs placebo): 0.61
Median TTF (without natural immunity, Never smoker): 5.6 months
12 months OS [34]: 85.7%
Median survival (OS) [34]: 16.2 months
HR (OS) (without natural immunity, Never smoker (NS), Vx-001 vs placebo): 0.2
HR (TTF) (without natural immunity, Never smoker, Vx-001 vs placebo): 0.51
12 months OS [35]: 59% and 57.9%
Median TTF [35]: 5.3 months
Median survival (OS) [35]: 13.2 months
HR (OS) [36]: 0.72
HR (TTF) [36]: 0.56
12 months OS [37]: 54%
Median TTF [37]: 3.6 months
Median survival (OS) [37]: 13.6 months
HR (OS) [38]: 0.82
HR (TTF) [38]: 0.95
12 months OS [39]: 52.6%
Median TTF [39]: 3 months
Median survival (OS) [39]: 13.2 months
HR (OS) [40]: 1.41
HR (TTF) [40]: 1.18

Reference: patent publication US12048737B2, “Use of a vaccine targeting a cryptic tert epitope, for treating cancer in a HLA-A*0201-positive patient having a non-immunogenic tumor expressing tert” (KRIPTIC PHARMACEUTICALS LIMITED, priority 2017, dated 2024)
